# Reference: article PMC8494917 (2021)
# What was measured:
# [1] = tested on: Bs-preQ1-RS (RNA, riboswitch) AGAGGUUCUAGCUACACCCUCUAUAAAAAACUAA; test: UV photocrosslinking, denaturing PAGE; details: 100 mM K+, 2 mM Mg2+, 50 mM Tris pH 7.5, 5% DMSO, room temperature, 5 µM RNA, 250 µM compound, covalent
# [2] = tested on: Ss-preQ1-RS (RNA, riboswitch) AGAGGUUCCUAGCUGAUACCCUCUAUAAAAAACUA; test: UV photocrosslinking, MALDI-TOF; details: 100 mM K+, 2 mM Mg2+; 10 µM RNA, 500 µM compound; covalent
# [3] = tested on: Bs-preQ1-RS full length (RNA, riboswitch) GCGGGAGAGGUUCUAGCUACACCCUCUAUAAAAAACUAGGACGAGCUGUAUCCUUGGAUACGGCCUUUU; test: competition of photocrosslinking, TAMRA click labelling, PAGE; details: 100 mM K+, 2 mM Mg2+; probe 11 (250 µM) displaced by 500-1000 µM PreQ1, in MCF-7 total RNA
# [4] = tested on: Cy5-Bs-preQ1-RS (RNA, riboswitch) AGAGGUUCUAGCUACACCCUCUAUAAAAAACUAA; test: microscale thermophoresis; details: 100 mM K+, 2 mM Mg2+, 50 mM Tris-HCl pH 7.5, 5% DMSO, room temperature, 100 nM RNA
# [5] = tested on: Ss-preQ1-RS (RNA, riboswitch) AGAGGUUCCUAGCUGAUACCCUCUAUAAAAAACUA; test: competition of photocrosslinking, PAGE; details: 100 mM K+, 2 mM Mg2+; 50 mM Tris pH 7.5; probe 11 (250 µM) displaced by 125-1250 µM PreQ1
# [6] = tested on: Cy5-Tt-preQ1-RS (RNA, riboswitch) CUGGGUCGCAGUAACCCCAGUUAACAAAACAAG; test: microscale thermophoresis; details: 100 mM K+, 2 mM Mg2+, 50 mM Tris-HCl pH 7.5, 5% DMSO, room temperature, 100 nM RNA
# [7] = tested on: Tt-preQ1-RS (ab 13_14) (RNA, riboswitch, abasic at 13 and 14) CUGGGUCGCAGUNNCCCCAGUUAACAAAACAAG; test: X-ray crystallography, 1.57 Å; details: without photocrosslinking
# [8] = tested on: Tt-preQ1-RS(G4A) (RNA, riboswitch) CUGAGUCGCAGUAACCCCAGUUAACAAAACAAG; test: UV photocrosslinking, denaturing PAGE; details: 100 mM K+, 2 mM Mg2+; 50 mM Tris pH 7.5; 10 µM RNA, 500 µM compound; covalent; about 40% less than wild type
# [9] = tested on: Bs-preQ1-RS full length (RNA, riboswitch) GCGGGAGAGGUUCUAGCUACACCCUCUAUAAAAAACUAGGACGAGCUGUAUCCUUGGAUACGGCCUUUU; test: UV photocrosslinking, TAMRA click labelling, PAGE; details: 100 mM K+, 2 mM Mg2+; 50 mM Tris pH 7.5, 5% DMSO; 1 µM RNA, 250 µM compound; covalent
# [10] = tested on: miR21-hp (RNA, miRNA) GGGUUGACUGUUGAAUCUCAUGGCAACCC; test: UV photocrosslinking, denaturing PAGE; details: 100 mM K+, 2 mM Mg2+; 50 mM Tris pH 7.5; 50:1 compound:RNA; covalent crosslink not detected
# [11] = tested on: Ss-preQ1-RS (RNA, riboswitch) AGAGGUUCCUAGCUGAUACCCUCUAUAAAAAACUA; test: UV photocrosslinking, denaturing PAGE; details: 100 mM K+, 2 mM Mg2+; 50 mM Tris pH 7.5, room temperature; 5 µM RNA, 25-250 µM compound; covalent
# [12] = tested on: Tt-preQ1-RS(G11A) (RNA, riboswitch) CUGGGUCGCAAUAACCCCAGUUAACAAAACAAG; test: UV photocrosslinking, denaturing PAGE; details: 100 mM K+, 2 mM Mg2+; 50 mM Tris pH 7.5; 10 µM RNA, 500 µM compound; covalent; similar to wild type
# [13] = tested on: Tt-preQ1-RS(G5A) (RNA, riboswitch) CUGGAUCGCAGUAACCCCAGUUAACAAAACAAG; test: UV photocrosslinking, denaturing PAGE; details: 100 mM K+, 2 mM Mg2+; 50 mM Tris pH 7.5; 10 µM RNA, 500 µM compound; covalent; similar to wild type
# [14] = tested on: SAM-II-WT-RS (RNA, riboswitch) UCGCGCUGAUUUAACCGUAUUGCAAGCGCGUGAUAAAUGUAGCUAAAAAGGG; test: UV photocrosslinking, denaturing PAGE; details: 100 mM K+, 2 mM Mg2+; 50 mM Tris pH 7.5; 50:1 compound:RNA; covalent crosslink not detected
# [15] = tested on: Tt-preQ1-RS (RNA, riboswitch) CUGGGUCGCAGUAACCCCAGUUAACAAAACAAG; test: X-ray crystallography, 2.80 Å; details: without photocrosslinking
smiles,measurement,setting,value
C#CCCC1(CCC(=O)NCc2c[nH]c3nc(N)[nH]c(=O)c23)N=N1,% Crosslink efficiency,[1],39.9 ± 5.3%
Nc1nc2[nH]cc(CNCCOCCOCCNCc3ccc(C4(C(F)(F)F)N=N4)cc3)c2c(=O)[nH]1,% Crosslink efficiency,[1],22.0 ± 2.2%
Nc1nc2[nH]cc(CNCCC3(CCc4cn(CCOCCOCCOCCNC(=O)CCCC[C@@H]5SC[C@@H]6NC(=O)N[C@@H]65)nn4)N=N3)c2c(=O)[nH]1,binding,[2],yes
Nc1nc2[nH]cc(CNCCOCCOCCOCCNCc3ccc(C4(C(F)(F)F)N=N4)cc3)c2c(=O)[nH]1,% Crosslink efficiency,[1],19.4 ± 4.4%
CC1(CCC(=O)NCc2c[nH]c3nc(N)[nH]c(=O)c23)N=N1,% Crosslink efficiency,[1],49.2 ± 3.2%
NCc1c[nH]c2nc(N)[nH]c(=O)c12,binding,[3],yes
same,apparent dissociation constant,[4],0.243 ± 0.01639 µM
same,binding,[5],yes
same,apparent dissociation constant,[6],0.193 ± 0.04523 µM
C#CCCC1(CCNCc2c[nH]c3nc(N)[nH]c(=O)c23)N=N1,binding,[7],yes
same,binding,[8],yes
same,binding,[9],yes
same,% Crosslink efficiency,[1],31.3 ± 2.9%
same,binding,[10],no
same,binding,[11],yes
same,binding,[12],yes
same,binding,[13],yes
same,apparent dissociation constant,[4]; about 50 x K of PreQ1,8.25 ± 2.56 µM
same,binding,[14],no
same,binding,[15],yes
same,apparent dissociation constant,[6]; about 50 x K of PreQ1,11.03 ± 2.98 µM
Nc1nc2[nH]cc(CNCc3ccc(C4(C(F)(F)F)N=N4)cc3)c2c(=O)[nH]1,binding,[1]; trace only,weak
